Experimental data from patent publication EP4745137A1 (Gluetacs Therapeutics (Shanghai) Co., Ltd., priority 2023, dated 2025).

Key:
WEE1 = biological target: T1, WEE1 (Homo sapiens, UniProt P30291+Q96SW2); assay: Western-blot assay of substrate protein degradation in hPBMCs, WEE1; format: cell-based; settings: 24 hours of compound treatment
T1 construct: endogenous in cells; host or cells: hPBMCs (Milecell Biotechnologies)

IKZF1 = biological target: T2, IKZF1 (Homo sapiens, UniProt Q13422+Q96SW2); assay: Western-blot assay of substrate protein degradation in hPBMCs, IKZF1; format: cell-based; settings: 24 hours of compound treatment
T2 construct: endogenous in cells; host or cells: hPBMCs (Milecell Biotechnologies)

IKZF2 = biological target: T3, IKZF2 (Homo sapiens, UniProt Q96SW2+Q9UKS7); assay: Western-blot assay of substrate protein degradation in hPBMCs, IKZF2; format: cell-based; settings: 24 hours of compound treatment
T3 construct: endogenous in cells; host or cells: hPBMCs (Milecell Biotechnologies)

IKZF3 = biological target: T4, IKZF3 (Homo sapiens, UniProt Q96SW2+Q9UKT9); assay: Western-blot assay of substrate protein degradation in hPBMCs, IKZF3; format: cell-based; settings: 24 hours of compound treatment
T4 construct: endogenous in cells; host or cells: hPBMCs (Milecell Biotechnologies)

CK1α = biological target: T5, CK1α (Homo sapiens, UniProt P48729+Q96SW2); assay: Western-blot assay of substrate protein degradation in hPBMCs, CK1α; format: cell-based; settings: 24 hours of compound treatment
T5 construct: endogenous in cells; host or cells: hPBMCs (Milecell Biotechnologies)

GSPT1 = biological target: T6, GSPT1 (Homo sapiens, UniProt P15170+Q96SW2); assay: Western-blot assay of substrate protein degradation in hPBMCs, GSPT1; format: cell-based; settings: 24 hours of compound treatment
T6 construct: endogenous in cells; host or cells: hPBMCs (Milecell Biotechnologies)

[1] = biological target: T7, human Cereblon WT GST-tagged protein (Homo sapiens, UniProt Q96SW2); assay: CRBN-binding affinity by HTRF (CEREBLON BINDING kit); settings: HTRF inhibitory activity, CEREBLON BINDING kit; read-out: HTRF IC50
T7 construct: purchased CISBIO 64BDCRBNPEH

[2] = 50 nM and 500 nM tested (concentration behind the class not stated)
[3] = compounds tested at 50 nM and 500 nM (concentration of the table not stated)

T4 sequence (Q9UKT9 whole entry): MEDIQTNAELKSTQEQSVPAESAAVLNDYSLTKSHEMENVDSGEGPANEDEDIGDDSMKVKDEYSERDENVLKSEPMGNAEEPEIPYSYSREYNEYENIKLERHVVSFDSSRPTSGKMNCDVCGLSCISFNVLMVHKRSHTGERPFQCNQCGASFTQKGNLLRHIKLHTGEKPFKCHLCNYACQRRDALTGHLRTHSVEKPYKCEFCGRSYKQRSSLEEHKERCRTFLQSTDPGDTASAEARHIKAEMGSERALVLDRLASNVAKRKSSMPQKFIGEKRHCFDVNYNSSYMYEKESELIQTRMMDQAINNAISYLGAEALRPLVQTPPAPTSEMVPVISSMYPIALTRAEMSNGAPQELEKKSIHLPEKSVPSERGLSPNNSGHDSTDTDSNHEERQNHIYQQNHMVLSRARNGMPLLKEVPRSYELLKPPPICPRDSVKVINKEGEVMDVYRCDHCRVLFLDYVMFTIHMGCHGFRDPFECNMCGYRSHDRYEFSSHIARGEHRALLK
T4 sequence (Q96SW2 whole entry): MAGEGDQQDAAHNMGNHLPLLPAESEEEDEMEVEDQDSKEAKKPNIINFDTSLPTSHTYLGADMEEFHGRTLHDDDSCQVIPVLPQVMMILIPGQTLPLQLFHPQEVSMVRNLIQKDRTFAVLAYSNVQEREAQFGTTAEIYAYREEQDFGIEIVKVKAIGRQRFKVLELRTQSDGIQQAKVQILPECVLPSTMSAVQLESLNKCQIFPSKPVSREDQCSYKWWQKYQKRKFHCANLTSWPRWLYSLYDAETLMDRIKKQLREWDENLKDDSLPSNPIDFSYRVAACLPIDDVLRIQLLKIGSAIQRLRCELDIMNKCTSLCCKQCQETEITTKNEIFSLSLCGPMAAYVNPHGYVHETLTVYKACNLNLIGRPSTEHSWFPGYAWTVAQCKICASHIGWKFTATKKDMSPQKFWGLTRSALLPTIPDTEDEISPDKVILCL
T4 sequence (Q16531 whole entry partner): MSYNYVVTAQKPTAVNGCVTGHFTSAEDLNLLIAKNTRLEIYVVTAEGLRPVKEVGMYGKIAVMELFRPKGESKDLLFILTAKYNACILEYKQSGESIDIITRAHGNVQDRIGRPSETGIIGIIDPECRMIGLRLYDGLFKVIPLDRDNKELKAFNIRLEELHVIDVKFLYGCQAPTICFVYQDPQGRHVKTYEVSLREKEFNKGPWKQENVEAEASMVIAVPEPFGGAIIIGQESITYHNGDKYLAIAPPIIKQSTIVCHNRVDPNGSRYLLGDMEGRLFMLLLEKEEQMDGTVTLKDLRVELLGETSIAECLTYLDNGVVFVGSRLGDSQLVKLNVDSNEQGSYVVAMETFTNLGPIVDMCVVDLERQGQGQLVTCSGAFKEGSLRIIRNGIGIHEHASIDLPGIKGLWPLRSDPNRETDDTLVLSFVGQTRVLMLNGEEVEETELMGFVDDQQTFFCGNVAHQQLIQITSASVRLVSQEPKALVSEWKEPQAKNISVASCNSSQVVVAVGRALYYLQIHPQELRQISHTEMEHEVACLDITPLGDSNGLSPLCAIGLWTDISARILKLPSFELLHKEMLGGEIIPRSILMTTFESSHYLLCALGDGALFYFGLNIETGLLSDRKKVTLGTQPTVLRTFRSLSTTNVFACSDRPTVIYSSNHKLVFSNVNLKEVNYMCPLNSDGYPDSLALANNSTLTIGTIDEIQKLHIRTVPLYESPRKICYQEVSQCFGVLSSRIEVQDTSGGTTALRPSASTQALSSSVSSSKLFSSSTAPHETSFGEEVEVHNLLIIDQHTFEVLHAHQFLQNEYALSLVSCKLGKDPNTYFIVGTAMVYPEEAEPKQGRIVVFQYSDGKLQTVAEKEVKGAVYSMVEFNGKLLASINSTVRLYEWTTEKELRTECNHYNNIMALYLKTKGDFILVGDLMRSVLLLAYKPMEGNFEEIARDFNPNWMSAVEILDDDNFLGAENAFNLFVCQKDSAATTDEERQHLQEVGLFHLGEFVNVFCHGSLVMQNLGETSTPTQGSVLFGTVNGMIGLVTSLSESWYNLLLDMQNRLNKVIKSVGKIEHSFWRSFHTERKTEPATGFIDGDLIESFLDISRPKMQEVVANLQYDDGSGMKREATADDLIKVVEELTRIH
T7 sequence (Q96SW2 whole entry): as the sequence (Q96SW2 whole entry) above
T3 sequence (Q9UKS7 whole entry): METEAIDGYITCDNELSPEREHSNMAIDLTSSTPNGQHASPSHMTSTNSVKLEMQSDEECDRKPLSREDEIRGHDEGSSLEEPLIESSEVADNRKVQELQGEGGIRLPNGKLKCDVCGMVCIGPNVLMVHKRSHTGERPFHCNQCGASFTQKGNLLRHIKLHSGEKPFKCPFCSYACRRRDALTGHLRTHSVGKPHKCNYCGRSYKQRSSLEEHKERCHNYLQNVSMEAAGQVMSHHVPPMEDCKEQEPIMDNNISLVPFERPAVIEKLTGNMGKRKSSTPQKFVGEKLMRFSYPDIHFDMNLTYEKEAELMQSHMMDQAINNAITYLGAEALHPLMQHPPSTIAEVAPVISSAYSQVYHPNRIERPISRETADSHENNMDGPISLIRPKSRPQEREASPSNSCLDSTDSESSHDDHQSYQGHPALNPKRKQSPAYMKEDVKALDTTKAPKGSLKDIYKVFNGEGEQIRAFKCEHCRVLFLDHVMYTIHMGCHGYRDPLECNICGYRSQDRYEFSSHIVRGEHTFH
T3 sequence (Q96SW2 whole entry): as the sequence (Q96SW2 whole entry) above
T3 sequence (Q16531 whole entry partner): as the sequence (Q16531 whole entry partner) above
T2 sequence (Q13422 whole entry): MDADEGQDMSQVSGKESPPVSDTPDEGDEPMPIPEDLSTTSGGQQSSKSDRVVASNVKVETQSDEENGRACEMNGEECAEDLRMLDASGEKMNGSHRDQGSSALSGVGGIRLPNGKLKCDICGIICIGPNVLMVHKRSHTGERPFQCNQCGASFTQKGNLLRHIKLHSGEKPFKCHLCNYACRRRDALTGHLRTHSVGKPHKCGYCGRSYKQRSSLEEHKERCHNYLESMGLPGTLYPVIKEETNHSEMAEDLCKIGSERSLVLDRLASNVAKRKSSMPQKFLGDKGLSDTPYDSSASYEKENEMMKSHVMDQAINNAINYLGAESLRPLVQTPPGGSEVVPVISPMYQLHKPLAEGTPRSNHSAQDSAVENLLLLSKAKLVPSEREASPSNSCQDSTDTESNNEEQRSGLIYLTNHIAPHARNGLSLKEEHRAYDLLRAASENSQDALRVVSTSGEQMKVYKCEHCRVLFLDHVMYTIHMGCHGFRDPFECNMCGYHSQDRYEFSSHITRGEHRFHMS
T2 sequence (Q96SW2 whole entry): as the sequence (Q96SW2 whole entry) above
T2 sequence (Q16531 whole entry partner): as the sequence (Q16531 whole entry partner) above
T1 sequence (P30291 whole entry): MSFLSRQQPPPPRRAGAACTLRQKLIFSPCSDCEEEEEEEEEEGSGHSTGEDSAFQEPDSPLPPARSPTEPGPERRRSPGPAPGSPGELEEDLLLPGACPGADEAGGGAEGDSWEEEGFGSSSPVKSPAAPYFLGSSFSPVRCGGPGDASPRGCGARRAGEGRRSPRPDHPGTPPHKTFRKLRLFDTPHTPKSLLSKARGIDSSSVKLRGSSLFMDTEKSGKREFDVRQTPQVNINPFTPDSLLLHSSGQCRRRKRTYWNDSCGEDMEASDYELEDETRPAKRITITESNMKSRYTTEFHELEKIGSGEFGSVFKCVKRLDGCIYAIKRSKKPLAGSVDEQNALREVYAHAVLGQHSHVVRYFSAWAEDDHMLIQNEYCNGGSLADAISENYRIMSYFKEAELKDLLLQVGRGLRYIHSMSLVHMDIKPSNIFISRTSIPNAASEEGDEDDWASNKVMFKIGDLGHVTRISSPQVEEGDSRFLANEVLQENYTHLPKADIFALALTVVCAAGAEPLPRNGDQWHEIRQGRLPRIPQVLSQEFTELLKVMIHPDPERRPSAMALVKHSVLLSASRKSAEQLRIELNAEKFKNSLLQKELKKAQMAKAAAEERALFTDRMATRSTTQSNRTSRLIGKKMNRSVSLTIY
T1 sequence (Q96SW2 whole entry): as the sequence (Q96SW2 whole entry) above
T1 sequence (Q16531 whole entry partner): as the sequence (Q16531 whole entry partner) above
T5 sequence (P48729 whole entry): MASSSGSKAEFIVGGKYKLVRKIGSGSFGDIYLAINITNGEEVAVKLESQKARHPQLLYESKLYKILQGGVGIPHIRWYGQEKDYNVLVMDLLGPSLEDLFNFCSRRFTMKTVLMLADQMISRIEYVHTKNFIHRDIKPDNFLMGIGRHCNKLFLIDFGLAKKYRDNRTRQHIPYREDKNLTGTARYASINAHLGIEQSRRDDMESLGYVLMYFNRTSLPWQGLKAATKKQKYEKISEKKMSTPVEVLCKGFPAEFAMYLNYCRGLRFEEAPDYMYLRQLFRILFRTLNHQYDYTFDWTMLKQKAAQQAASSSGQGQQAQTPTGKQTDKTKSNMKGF
T5 sequence (Q96SW2 whole entry): as the sequence (Q96SW2 whole entry) above
T5 sequence (Q16531 whole entry partner): as the sequence (Q16531 whole entry partner) above

Cc1sc2ncnc(C3CCN(Cc4ccc5c(c4)C(=O)N(C4CCC(=O)NC4=O)C5=O)CC3)c2c1C (stereo not drawn) [GT-06593, 5-((4-(5,6-dimethylthieno[2,3-d]pyrimidin-4-yl)piperidin-1-yl)methyl)-2-(2,6-dioxopiperidin-3-yl)isoindoline-1,3-dione]
Weel substrate protein remaining % (WEE1; [2]): A (0% ≤ substrate protein remaining % ≤ 80%) | IKZF 1 substrate protein remaining % (IKZF1; [2]): A (0% ≤ substrate protein remaining % ≤ 80%) | IKZF2 substrate protein remaining % (IKZF2; [2]): A (0% ≤ substrate protein remaining % ≤ 80%) | IKZF3 substrate protein remaining % (IKZF3; [2]): A (0% ≤ substrate protein remaining % ≤ 80%) | CK1a substrate protein remaining % (CK1α; [2]): B (80%< substrate protein remaining %≤ 100%) | GSPT1 substrate protein remaining % (GSPT1; [2]): A (0% ≤ substrate protein remaining % ≤ 80%) | IC50 [1]: 1500 to 1900 nM

O=C1CCC(N2Cc3cc(CN4CCN(c5ncc(C(F)(F)F)cc5Cl)CC4)ccc3C2=O)C(=O)N1 (stereo not drawn) [GT-04480, 3-(5-((4-(3-chloro-5-(trifluoromethyl)pyridin-2-yl)piperazin-1-yl)methyl)-1-oxoisoindolin-2-yl)piperidine-2,6-dione]
Weel substrate protein remaining % (WEE1; [3]): A (0% ≤ substrate protein remaining % ≤ 80%) | IKZF 1 substrate protein remaining % (IKZF1; [3]): A (0% ≤ substrate protein remaining % ≤ 80%) | IKZF2 substrate protein remaining % (IKZF2; [3]): A (0% ≤ substrate protein remaining % ≤ 80%) | IKZF3 substrate protein remaining % (IKZF3; [3]): A (0% ≤ substrate protein remaining % ≤ 80%) | CK1a substrate protein remaining % (CK1α; [3]): A (0% ≤ substrate protein remaining % ≤ 80%) | GSPT1 substrate protein remaining % (GSPT1; [3]): A (0% ≤ substrate protein remaining % ≤ 80%) | IC50 [1]: 1500 to 1900 nM

O=C1CCC(N2Cc3cc(CN4CCN(c5cc(Cl)nnc5Cl)CC4)ccc3C2=O)C(=O)N1 (stereo not drawn) [GT-04500, 3-(5-((4-(3,6-dichloropyridazin-4-yl)piperazin-1-yl)methyl)-1-oxoisoindolin-2-yl)piperidine-2,6-dione]
Weel substrate protein remaining % (WEE1; [3]): A (0% ≤ substrate protein remaining % ≤ 80%) | IKZF 1 substrate protein remaining % (IKZF1; [3]): A (0% ≤ substrate protein remaining % ≤ 80%) | IKZF2 substrate protein remaining % (IKZF2; [3]): A (0% ≤ substrate protein remaining % ≤ 80%) | IKZF3 substrate protein remaining % (IKZF3; [3]): A (0% ≤ substrate protein remaining % ≤ 80%) | CK1a substrate protein remaining % (CK1α; [3]): A (0% ≤ substrate protein remaining % ≤ 80%) | GSPT1 substrate protein remaining % (GSPT1; [3]): A (0% ≤ substrate protein remaining % ≤ 80%) | IC50 [1]: 500 to 1000 nM

O=C1CCC(N2Cc3cc(CN4CCN(c5ccccn5)CC4)ccc3C2=O)C(=O)N1 (stereo not drawn) [GT-04449, 3-(1-oxo-5-((4-(pyridin-2-yl)piperazin-1-yl)methyl)isoindolin-2-yl)piperidine-2,6-dione]
Weel substrate protein remaining % (WEE1; [3]): A (0% ≤ substrate protein remaining % ≤ 80%) | IKZF 1 substrate protein remaining % (IKZF1; [3]): A (0% ≤ substrate protein remaining % ≤ 80%) | IKZF2 substrate protein remaining % (IKZF2; [3]): A (0% ≤ substrate protein remaining % ≤ 80%) | IKZF3 substrate protein remaining % (IKZF3; [3]): A (0% ≤ substrate protein remaining % ≤ 80%) | CK1a substrate protein remaining % (CK1α; [3]): A (0% ≤ substrate protein remaining % ≤ 80%) | GSPT1 substrate protein remaining % (GSPT1; [3]): A (0% ≤ substrate protein remaining % ≤ 80%) | IC50 [1]: 500 to 1000 nM

Cc1csc2ncnc(N3CCN(Cc4ccc5c(c4)C(=O)N(C4CCC(=O)NC4=O)C5=O)CC3)c12 (stereo not drawn) [GT-06304, 2-(2,6-dioxopiperidin-3-yl)-5-((4-(5-methylthieno[2,3-d]pyrimidin-4-yl)piperazin-1-yl)methyl)isoindoline-1,3-dione]
Weel substrate protein remaining % (WEE1; [2]): B (80%< substrate protein remaining %≤ 100%) | IKZF 1 substrate protein remaining % (IKZF1; [2]): A (0% ≤ substrate protein remaining % ≤ 80%) | IKZF2 substrate protein remaining % (IKZF2; [2]): A (0% ≤ substrate protein remaining % ≤ 80%) | IKZF3 substrate protein remaining % (IKZF3; [2]): B (80%< substrate protein remaining %≤ 100%) | CK1a substrate protein remaining % (CK1α; [2]): B (80%< substrate protein remaining %≤ 100%) | GSPT1 substrate protein remaining % (GSPT1; [2]): B (80%< substrate protein remaining %≤ 100%) | IC50 [1]: 500 to 1000 nM

Cc1ccc(C2=CCN(Cc3ccc4c(c3)C(=O)N(C3CCC(=O)NC3=O)C4=O)CC2)s1 (stereo not drawn) [GT-06220, 2-(2,6-dioxopiperidin-3-yl)-5-((4-(5-methylthiophen-2-yl)-3,6-dihydropyridin-1(2H)-yl)methyl)isoindoline-1,3-dione]
Weel substrate protein remaining % (WEE1; [2]): A (0% ≤ substrate protein remaining % ≤ 80%) | IKZF 1 substrate protein remaining % (IKZF1; [2]): A (0% ≤ substrate protein remaining % ≤ 80%) | IKZF2 substrate protein remaining % (IKZF2; [2]): A (0% ≤ substrate protein remaining % ≤ 80%) | IKZF3 substrate protein remaining % (IKZF3; [2]): A (0% ≤ substrate protein remaining % ≤ 80%) | CK1a substrate protein remaining % (CK1α; [2]): A (0% ≤ substrate protein remaining % ≤ 80%) | GSPT1 substrate protein remaining % (GSPT1; [2]): A (0% ≤ substrate protein remaining % ≤ 80%) | IC50 [1]: 1500 to 1900 nM

O=C1CCC(N2Cc3cc(CN4CCN(c5ccncc5Br)CC4)ccc3C2=O)C(=O)N1 (stereo not drawn) [GT-04580, 3-(5-((4-(3-bromopyridin-4-yl)piperazin-1-yl)methyl)-1-oxoisoindolin-2-yl)piperidine-2,6-dione]
Weel substrate protein remaining % (WEE1; [3]): A (0% ≤ substrate protein remaining % ≤ 80%) | IKZF 1 substrate protein remaining % (IKZF1; [3]): A (0% ≤ substrate protein remaining % ≤ 80%) | IKZF2 substrate protein remaining % (IKZF2; [3]): A (0% ≤ substrate protein remaining % ≤ 80%) | IKZF3 substrate protein remaining % (IKZF3; [3]): A (0% ≤ substrate protein remaining % ≤ 80%) | CK1a substrate protein remaining % (CK1α; [3]): A (0% ≤ substrate protein remaining % ≤ 80%) | GSPT1 substrate protein remaining % (GSPT1; [3]): B (80%< substrate protein remaining %≤ 100%) | IC50 [1]: 500 to 1000 nM

O=C1CCC(N2Cc3cc(CN4CCN(c5nc6c(c(N7CCOCC7)n5)SCC6)CC4)ccc3C2=O)C(=O)N1 (stereo not drawn) [GT-04694, 3-(5-((4-(4-morpholino-6,7-dihydrothieno[3,2-d]pyrimidin-2-yl)piperazin-1-yl)methyl)-1-oxoisoindolin-2-yl)piperidine-2,6-dione]
Weel substrate protein remaining % (WEE1; [3]): A (0% ≤ substrate protein remaining % ≤ 80%) | IKZF 1 substrate protein remaining % (IKZF1; [3]): B (80%< substrate protein remaining %≤ 100%) | IKZF2 substrate protein remaining % (IKZF2; [3]): A (0% ≤ substrate protein remaining % ≤ 80%) | IKZF3 substrate protein remaining % (IKZF3; [3]): A (0% ≤ substrate protein remaining % ≤ 80%) | CK1a substrate protein remaining % (CK1α; [3]): B (80%< substrate protein remaining %≤ 100%) | GSPT1 substrate protein remaining % (GSPT1; [3]): A (0% ≤ substrate protein remaining % ≤ 80%) | IC50 [1]: < 500 nM

O=C1CCC(N2Cc3cc(CN4CCN(c5ccnc(O)c5F)CC4)ccc3C2=O)C(=O)N1 (stereo not drawn) [GT-04929, 3-(5-((4-(3-fluoro-2-hydroxypyridin-4-yl)piperazin-1-yl)methyl)-1-oxoisoindolin-2-yl)piperidine-2,6-dione]
Weel substrate protein remaining % (WEE1; [3]): B (80%< substrate protein remaining %≤ 100%) | IKZF 1 substrate protein remaining % (IKZF1; [3]): A (0% ≤ substrate protein remaining % ≤ 80%) | IKZF2 substrate protein remaining % (IKZF2; [3]): B (80%< substrate protein remaining %≤ 100%) | IKZF3 substrate protein remaining % (IKZF3; [3]): B (80%< substrate protein remaining %≤ 100%) | CK1a substrate protein remaining % (CK1α; [3]): B (80%< substrate protein remaining %≤ 100%) | GSPT1 substrate protein remaining % (GSPT1; [3]): A (0% ≤ substrate protein remaining % ≤ 80%) | IC50 [1]: 500 to 1000 nM
